# Measured values taken from ChEMBL document CHEMBL1201862, “PubChem BioAssay data set” (2004).
# Calls of active or inactive are those of the source.
# Assays:
# [1] = target: Luciferin 4-monooxygenase (Photinus pyralis, UniProt P08659); test: inhibition of purified Photinus pyralis luciferase – biochemical, luminescence, dose response (AID 1891)
# [2] = Luminescence Cell-Based Dose Confirmation HTS to Identify Inhibitors of Platelet Dense Granule Release. [Related pubchem assays: 1663 (Primary HTS), 1678 (Summary of Project)]; type: functional
# [3] = mitochondrial function rescue without frataxin homolog – Friedreich's ataxia, plus single-dose screen, dose response (AID 1465); type: functional;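 note: yeast depleted of Yfh1p frataxin homolog grown on glycerol needing respiration; WST-1 tetrazolium dye reduction as measure of cellular dehydrogenase metabolic activity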
# CHO-K1 = test: (§1) Counterscreen for antagonists of the orexin 1 receptor (OX1R; HCRTR1): Homogeneous time resolved fluorescence (HTRF)-based cell-based dose response assay to identify antagonists of the parental CHO-K1 cell line. [Related pubchem assays (depositor defined):AID434989, AID435008, AID463079, AID485270, AID492963, AID492964, AID492965, AID493232, AID504699, AID504701]; type: functional; conditions: Cricetulus griseus
# [4] = as §1, with “Fluorescence-based” for “Homogeneous time resolved fluorescence (HTRF)-based”, “cell-based high throughput” for “cell-based”, “CHO” for “CHO-K1”; type: functional
# [5] = target: T1, Orexin/Hypocretin receptor type 1 (Homo sapiens, UniProt O43613); test: Homogeneous Time Resolved Fluorescence (HTRF)-based cell-based high throughput dose response assay for antagonists of the orexin 1 receptor (OX1R; HCRTR1). [Related pubchem assays (depositor defined):AID434989, AID435008, AID463079, AID485270, AID492963, AID492964, AID492965, AID493232, AID504717, AID504718]; type: functional
# T1 sequence (O43613 whole entry): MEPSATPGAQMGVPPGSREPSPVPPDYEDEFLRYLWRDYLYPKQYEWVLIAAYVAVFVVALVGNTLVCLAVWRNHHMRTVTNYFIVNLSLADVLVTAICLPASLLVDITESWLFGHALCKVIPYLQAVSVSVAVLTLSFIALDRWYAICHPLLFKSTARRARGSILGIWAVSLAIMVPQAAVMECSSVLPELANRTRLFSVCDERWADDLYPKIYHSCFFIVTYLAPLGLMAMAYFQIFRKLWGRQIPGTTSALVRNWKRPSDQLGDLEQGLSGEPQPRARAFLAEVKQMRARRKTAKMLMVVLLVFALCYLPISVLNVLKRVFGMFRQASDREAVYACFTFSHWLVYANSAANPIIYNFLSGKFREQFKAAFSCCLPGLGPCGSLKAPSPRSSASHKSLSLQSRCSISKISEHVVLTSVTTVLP
# [6] = target: T1, Orexin/Hypocretin receptor type 1; test: Fluorescence-based cell-based high throughput dose response assay for antagonists of the orexin 1 receptor (OX1R; HCRTR1). [Related pubchem assays (depositor defined):AID434989, AID435008, AID463079, AID485270, AID492963, AID492964, AID492965, AID493232, AID504717, AID504718]; type: functional
# [7] = target: Intestinal-type alkaline phosphatase (Homo sapiens, UniProt P09923); test: human intestinal alkaline phosphatase activators, dose response, biochemical, luminescence, uHTS hits (AID 463120); type: functional
# Tumor necrosis factor = Tumor necrosis factor (Homo sapiens, UniProt P01375); test: analog potency on TNFa NF-kB signaling – cell-based, revised, SAR follow-up (AID 2337); type: functional
# Sequence of Tumor necrosis factor (P01375 whole entry, the tested form may be a part): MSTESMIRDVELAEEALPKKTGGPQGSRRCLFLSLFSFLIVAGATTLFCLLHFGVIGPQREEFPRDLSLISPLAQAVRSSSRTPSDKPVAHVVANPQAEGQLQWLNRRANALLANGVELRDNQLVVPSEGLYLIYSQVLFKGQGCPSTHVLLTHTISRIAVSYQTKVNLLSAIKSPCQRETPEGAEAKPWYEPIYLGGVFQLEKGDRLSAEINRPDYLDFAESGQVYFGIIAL
# [8] = target: Nucleotide-binding oligomerization domain-containing protein 1 (Homo sapiens, UniProt Q9Y239); test: blockers of NOD1 pathway activity – revised, SAR follow-up (AID 2333); type: functional
# [9] = target: Nucleotide-binding oligomerization domain-containing protein 2 (Homo sapiens, UniProt Q9HC29); test: PubChem AID 2334; type: functional
# Sequence of Nucleotide-binding oligomerization domain-containing protein 2 (Q9HC29 whole entry, the tested form may be a part): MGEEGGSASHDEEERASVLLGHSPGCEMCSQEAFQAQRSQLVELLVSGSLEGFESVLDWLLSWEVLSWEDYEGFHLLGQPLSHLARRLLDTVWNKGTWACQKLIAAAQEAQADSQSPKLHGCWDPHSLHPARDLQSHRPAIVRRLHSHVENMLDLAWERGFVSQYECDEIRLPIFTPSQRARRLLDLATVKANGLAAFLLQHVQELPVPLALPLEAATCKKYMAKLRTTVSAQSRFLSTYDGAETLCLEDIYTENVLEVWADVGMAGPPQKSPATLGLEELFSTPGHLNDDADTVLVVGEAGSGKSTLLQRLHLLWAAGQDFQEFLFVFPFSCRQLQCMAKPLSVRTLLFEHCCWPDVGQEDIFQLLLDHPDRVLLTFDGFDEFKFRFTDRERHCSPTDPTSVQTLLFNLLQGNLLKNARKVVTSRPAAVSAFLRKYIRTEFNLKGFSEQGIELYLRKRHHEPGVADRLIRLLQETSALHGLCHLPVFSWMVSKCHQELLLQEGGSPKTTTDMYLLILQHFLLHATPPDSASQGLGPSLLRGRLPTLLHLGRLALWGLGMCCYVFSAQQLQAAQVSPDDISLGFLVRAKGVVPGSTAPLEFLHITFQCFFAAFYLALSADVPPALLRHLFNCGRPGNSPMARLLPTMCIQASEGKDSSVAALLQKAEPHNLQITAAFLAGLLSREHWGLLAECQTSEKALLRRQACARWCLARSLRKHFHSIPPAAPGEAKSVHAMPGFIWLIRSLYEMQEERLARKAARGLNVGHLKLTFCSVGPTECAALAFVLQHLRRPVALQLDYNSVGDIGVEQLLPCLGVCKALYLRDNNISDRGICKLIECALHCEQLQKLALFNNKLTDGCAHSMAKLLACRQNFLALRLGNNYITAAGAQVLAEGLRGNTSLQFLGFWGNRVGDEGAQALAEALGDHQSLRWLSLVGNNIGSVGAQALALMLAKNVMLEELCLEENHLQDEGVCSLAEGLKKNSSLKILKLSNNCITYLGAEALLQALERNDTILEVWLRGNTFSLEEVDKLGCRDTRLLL
# HEK293 = test: cells; conditions: Homo sapiens;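 note: cells exposed to compound for 14 hours overnight before viability readout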
# [10] = target: T2, Tyrosine-protein phosphatase non-receptor type 7 (Homo sapiens, UniProt P35236); type: functional
# T2 sequence (P35236 whole entry): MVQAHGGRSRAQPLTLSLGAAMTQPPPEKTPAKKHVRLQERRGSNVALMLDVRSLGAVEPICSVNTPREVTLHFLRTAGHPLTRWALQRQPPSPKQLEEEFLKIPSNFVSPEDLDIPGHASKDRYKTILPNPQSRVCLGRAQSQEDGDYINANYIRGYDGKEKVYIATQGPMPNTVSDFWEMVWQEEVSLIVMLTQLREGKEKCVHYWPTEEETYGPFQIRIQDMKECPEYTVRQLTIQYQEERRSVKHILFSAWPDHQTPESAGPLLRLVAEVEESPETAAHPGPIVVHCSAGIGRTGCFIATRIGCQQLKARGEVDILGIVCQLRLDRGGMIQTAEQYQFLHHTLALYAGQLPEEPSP
# [11] = target: T3, Tyrosine-protein phosphatase non-receptor type 22 (Homo sapiens, UniProt Q9Y2R2); type: functional
# T3 sequence (Q9Y2R2 whole entry): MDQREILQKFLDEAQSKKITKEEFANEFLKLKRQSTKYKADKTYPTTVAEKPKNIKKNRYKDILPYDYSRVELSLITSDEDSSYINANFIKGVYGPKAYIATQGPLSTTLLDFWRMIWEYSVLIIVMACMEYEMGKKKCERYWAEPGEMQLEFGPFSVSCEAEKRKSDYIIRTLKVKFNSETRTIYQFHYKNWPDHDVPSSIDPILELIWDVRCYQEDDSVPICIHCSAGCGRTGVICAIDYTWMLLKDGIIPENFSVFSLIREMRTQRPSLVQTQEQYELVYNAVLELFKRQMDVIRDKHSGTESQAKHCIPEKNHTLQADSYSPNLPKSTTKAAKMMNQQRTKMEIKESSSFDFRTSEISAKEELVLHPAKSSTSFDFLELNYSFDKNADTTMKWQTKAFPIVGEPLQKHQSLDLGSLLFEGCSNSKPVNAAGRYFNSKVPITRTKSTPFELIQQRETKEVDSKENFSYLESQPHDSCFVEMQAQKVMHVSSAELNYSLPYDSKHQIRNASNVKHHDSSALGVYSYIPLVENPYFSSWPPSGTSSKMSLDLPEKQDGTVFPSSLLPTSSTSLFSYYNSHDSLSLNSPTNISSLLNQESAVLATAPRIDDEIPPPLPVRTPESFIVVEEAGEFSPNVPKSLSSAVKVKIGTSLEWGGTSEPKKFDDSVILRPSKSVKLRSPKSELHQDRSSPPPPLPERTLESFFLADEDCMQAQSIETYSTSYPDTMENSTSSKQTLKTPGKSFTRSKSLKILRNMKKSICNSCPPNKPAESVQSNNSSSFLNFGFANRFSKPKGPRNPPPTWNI
# [12] = target: T3, Tyrosine-protein phosphatase non-receptor type 22; type: functional; remark: listed apart in the source
# [13] = target: T4, E3 ubiquitin-protein ligase XIAP (Homo sapiens, UniProt P98170); test: SAR analysis of Antagonists of XIAP-Bir3 domain of IAP-family anti-apoptotic proteins. [Related pubchem assays (depositor defined):AID1018, AID1449, AID1513, AID1514, AID1638]
# T4 sequence (P98170 whole entry, the tested form may be a part): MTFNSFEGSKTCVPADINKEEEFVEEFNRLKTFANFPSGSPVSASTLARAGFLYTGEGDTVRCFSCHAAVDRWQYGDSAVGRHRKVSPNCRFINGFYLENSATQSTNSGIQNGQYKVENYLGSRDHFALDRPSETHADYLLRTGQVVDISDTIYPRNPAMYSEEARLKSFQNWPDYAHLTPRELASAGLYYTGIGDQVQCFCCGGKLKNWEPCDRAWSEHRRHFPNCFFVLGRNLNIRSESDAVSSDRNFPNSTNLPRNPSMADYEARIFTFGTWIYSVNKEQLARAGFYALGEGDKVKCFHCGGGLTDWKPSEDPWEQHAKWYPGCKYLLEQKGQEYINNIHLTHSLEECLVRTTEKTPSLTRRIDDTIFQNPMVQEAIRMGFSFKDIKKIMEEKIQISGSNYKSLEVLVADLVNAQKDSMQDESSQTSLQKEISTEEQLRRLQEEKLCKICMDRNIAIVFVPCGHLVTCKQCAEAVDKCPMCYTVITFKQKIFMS
# [14] = target: T4, E3 ubiquitin-protein ligase XIAP; test: SAR analysis of Antagonists of IAP-family anti-apoptotic proteins. [Related pubchem assays (depositor defined):AID1018, AID1449, AID1513, AID1514, AID1638]
# [15] = target: Signal transducer and activator of transcription 3 (Homo sapiens, UniProt P40763); test: STAT3 blockade with qPCR and toxicity readouts – cell-based, STAT1 panel, cytotoxicity, late-stage follow-up, panel member STAT3 Inhibition (AID 2078)
# Sequence of Signal transducer and activator of transcription 3 (P40763 whole entry): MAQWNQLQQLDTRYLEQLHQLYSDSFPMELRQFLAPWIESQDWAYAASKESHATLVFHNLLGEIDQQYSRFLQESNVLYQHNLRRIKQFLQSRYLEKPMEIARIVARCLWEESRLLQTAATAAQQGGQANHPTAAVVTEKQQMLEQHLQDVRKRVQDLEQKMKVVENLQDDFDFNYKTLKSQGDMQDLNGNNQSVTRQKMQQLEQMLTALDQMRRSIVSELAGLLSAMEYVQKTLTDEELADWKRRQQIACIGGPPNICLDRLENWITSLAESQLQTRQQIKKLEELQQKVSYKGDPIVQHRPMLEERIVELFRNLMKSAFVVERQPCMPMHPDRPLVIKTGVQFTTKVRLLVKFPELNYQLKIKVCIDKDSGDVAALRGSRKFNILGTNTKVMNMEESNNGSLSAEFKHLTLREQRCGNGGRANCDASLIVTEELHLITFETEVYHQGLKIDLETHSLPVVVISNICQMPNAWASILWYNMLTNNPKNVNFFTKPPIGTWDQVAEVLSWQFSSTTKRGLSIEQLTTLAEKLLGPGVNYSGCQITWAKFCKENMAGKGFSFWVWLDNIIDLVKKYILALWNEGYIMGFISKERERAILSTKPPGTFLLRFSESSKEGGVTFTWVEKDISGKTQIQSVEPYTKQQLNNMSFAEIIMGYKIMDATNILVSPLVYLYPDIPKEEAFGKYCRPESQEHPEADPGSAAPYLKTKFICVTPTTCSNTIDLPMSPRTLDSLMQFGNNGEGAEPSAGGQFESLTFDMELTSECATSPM
# [16] = target: Signal transducer and activator of transcription 1-alpha/beta (Homo sapiens, UniProt P42224); test: STAT3 blockade with qPCR and toxicity readouts – cell-based, STAT1 panel, cytotoxicity, late-stage follow-up, panel member STAT1 Inhibition (AID 2078)
# [17] = target: T5, Kappa-type opioid receptor (Homo sapiens, UniProt P41145); test: kappa opioid receptor activation by imaging – image-based, set 3, SAR follow-up (AID 488833); type: functional
# T5 sequence (P41145 whole entry): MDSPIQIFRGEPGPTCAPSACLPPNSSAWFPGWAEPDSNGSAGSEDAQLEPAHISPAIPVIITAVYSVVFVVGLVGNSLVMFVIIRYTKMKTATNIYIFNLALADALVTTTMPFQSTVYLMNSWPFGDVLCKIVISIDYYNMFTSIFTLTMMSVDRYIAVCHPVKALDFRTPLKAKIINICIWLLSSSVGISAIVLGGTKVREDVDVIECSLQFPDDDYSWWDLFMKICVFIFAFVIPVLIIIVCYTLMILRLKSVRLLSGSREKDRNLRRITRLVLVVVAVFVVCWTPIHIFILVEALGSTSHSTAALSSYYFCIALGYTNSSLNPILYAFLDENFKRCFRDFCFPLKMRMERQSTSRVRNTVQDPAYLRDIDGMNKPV
# Mu-type opioid receptor = Mu-type opioid receptor (Homo sapiens, UniProt P35372); test: SAR Analysis of Agonists of the MOR Receptor using an Image-Based Assay - Set 3. [Related pubchem assays (depositor defined):AID1777, AID1785, AID1786, AID1966, AID2133, AID2136, AID2284, AID2285, AID2352]; type: functional
# Sequence of Mu-type opioid receptor (P35372 whole entry): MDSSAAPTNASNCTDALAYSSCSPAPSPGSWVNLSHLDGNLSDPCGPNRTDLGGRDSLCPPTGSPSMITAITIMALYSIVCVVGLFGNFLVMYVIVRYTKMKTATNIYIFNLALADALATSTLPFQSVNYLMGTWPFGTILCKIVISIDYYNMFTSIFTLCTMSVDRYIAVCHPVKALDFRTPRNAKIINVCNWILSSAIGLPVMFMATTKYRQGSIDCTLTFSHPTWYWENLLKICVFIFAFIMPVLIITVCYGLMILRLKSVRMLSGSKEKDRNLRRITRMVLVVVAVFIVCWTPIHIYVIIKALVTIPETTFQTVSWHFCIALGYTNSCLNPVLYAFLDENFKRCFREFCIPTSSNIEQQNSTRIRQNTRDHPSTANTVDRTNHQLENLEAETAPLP
# [18] = target: Delta-type opioid receptor (Homo sapiens, UniProt P41143); test: SAR Analysis of Agonists of the DOR Receptor using an Image-Based Assay - Set 3. [Related pubchem assays (depositor defined):AID1777, AID1786]; type: functional
# Sequence of Delta-type opioid receptor (P41143 whole entry): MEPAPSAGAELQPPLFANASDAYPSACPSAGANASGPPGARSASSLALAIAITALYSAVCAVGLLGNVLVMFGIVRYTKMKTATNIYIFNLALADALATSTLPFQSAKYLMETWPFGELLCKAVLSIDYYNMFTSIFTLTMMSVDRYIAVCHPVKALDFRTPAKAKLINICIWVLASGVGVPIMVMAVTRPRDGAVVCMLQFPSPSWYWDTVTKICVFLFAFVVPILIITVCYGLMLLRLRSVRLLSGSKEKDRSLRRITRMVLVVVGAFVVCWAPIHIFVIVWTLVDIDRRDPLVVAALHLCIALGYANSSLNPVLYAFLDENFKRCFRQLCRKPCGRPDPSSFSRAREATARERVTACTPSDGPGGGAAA
# [19] = target: T5, Kappa-type opioid receptor; test: SAR analysis of small molecule agonists of the kappa opioid receptor via a luminescent beta-arrestin assay - Set 3. [Related pubchem assays (depositor defined):AID1777, AID1785, AID1786, AID1966, AID2133, AID2136, AID2284, AID2500]; type: functional
structure (smiles),measurement,setting,value
O=C(N/C(=C/c1cccc(Br)c1)c1nc(S)n[nH]1)c1ccccc1,EC50,[1],28.9 µM (active)
same,EC50,[2],> 112 µM (not active)
same,EC50,[3],> 100 µM (active)
same,IC50,CHO-K1,> 66.2 µM (inactive)
same,IC50,[4],33.3 µM (inactive)
same,IC50,[5],> 66.2 µM (inactive)
same,IC50,[6],16.8 µM (inactive)
O=C(COc1ccc2ccccc2c1Br)N1CCCCC1,EC50,[7],> 100 µM (inactive)
Cc1ccc(C(=O)Nc2sc3c(c2C(=O)O)CCCC3)o1,IC50,Tumor necrosis factor,> 20 µM (inactive)
same,IC50,[8],> 20 µM (inactive)
same,IC50,[9],> 20 µM (inactive)
same,IC50,HEK293,> 20 µM (inactive)
Cc1cc(C)nc(NC(=O)c2cc(-c3ccc(C)s3)nc3ccccc23)c1,IC50,[10],> 79.4 µM (inactive)
same,IC50,[11],> 79.4 µM (inactive)
same,IC50,[12],> 79.4 µM (inactive)
CN[C@@H](C)C(=O)N[C@H](C(=O)N1CCC[C@H]1C(=O)Nc1ccc2[nH]ccc2c1)C(C)C,IC50,[13],14.3 µM (active)
same,IC50,[14],2 µM (active)
Cc1sc2ncnc(N3CCC(Cc4ccccc4)CC3)c2c1C,IC50,[15],> 18.6 µM (inactive)
same,IC50,[16],> 55.7 µM (inactive)
Fc1cc(F)cc(CSc2nnc(-c3ccccn3)n2Cc2ccco2)c1,EC50,[17],20.6 µM (inactive)
same,EC50,Mu-type opioid receptor,> 32 µM (inactive)
same,EC50,[18],> 64 µM (inactive)
same,EC50,[19],7.89 µM (active)
